Assay results taken from US5871753A, “Regulated transcription of targeted genes and other biological events” (Board of Trustees of the Leland Stanford Junior University, priority 1995, dated 1999).

What was measured:
[1] = test system: chimeric FKBP12/CD3.zeta. (1FK3) receptor; assay: NFAT-inducible secreted alkaline phosphatase reporter activation through chimeric FKBP12/CD3.zeta. (1FK3) receptor; format: cell-based, human; settings: 2 ng/ml FK506; FK1012A-stimulated 1FK3 transfected cells
Experimental: Activity of the Dimeric FK506 Derivative, FK1012A, on the Chimeric FKBP12/CD3.zeta. (1FK3) Receptor
5 μg of the eukaryotic expression vector, pBJ5, (based on pCDL-SRαwith a polylinker inserted between the 16S splice site and the poly A site) containing the chimeric receptor (1FK3), was co-transfected with 4 μg of the NFAT-inducible secreted alkaline phosphatase reporter plasmid, NFAT-SX. As a control, 5 μg of pBJ5 was used, instead of 1FK3/pBJ5, in a parallel transfection. After 24 hours, aliquots of each transfection containing approximately 10^5 cells were incubated with log dilutions of the drug, FK1012A, as indicated. As a positive control and to control for transfection efficiency, ionomycin (1 μm) and PMA (25 ng/ml) were added to aliquots from each transfection. After an additional 14 hour incubation, the supernatants were assayed for alkaline phosphatase activity and these activities were expressed relative to that of the positive control samples.
To obtain the binding domain for FK506, plasmid rhFKBP (provided by S. Schreiber, Nature (1990) 346, 674) was used with P#6052 (SEQ ID NO. 33) and P#6053 (SEQ ID NO. 35) to obtain a 340 bp XhoI-SalI fragment containing human FKBP12. This fragment was inserted into pBluescript digested with XhoI and SalI to provide plasmid FK12/KS, which was the source for the FKBP12 binding domain. […]

[2] = test system: myristoylated chimeric CD3.zeta./FKBP12 (MZF3E) receptor; assay: NFAT-SX secreted alkaline phosphatase reporter activation through myristoylated chimeric CD3.zeta./FKBP12 (MZF3E) receptor; format: cell-based, human; settings: 1 ng/ml FK506, FK1012B-stimulated
Experimental: Activity of the Dimeric FK506 Derivative, FK1012B, on the Myristoylated Chimeric CD3.zeta./FKBP12 (MZF3E) Receptor
5 μg of the eukaryotic expression vector, pBJ5, containing a myristoylated chimeric receptor was co-transfected with 4 μg NFAT-SX. MZE, MZF1E, MZF2E and MZF3E contain 0, 1, 2, or 3 copies of FKBP12, respectively, downstream of a myristoylated CD3.zeta. cytoplasmic domain (see FIG. 2). As a control, 5 μg of pBJ5 was used in a parallel transfection. After 24 hours, aliquots of each transfection containing approximately 10^5 cells were incubated with log dilutions of the drug, FK1012B, as indicated. As a positive control and to control for transfection efficiency, ionomycln (1 μm) and PMA (25 ng/ml) were added to aliquots from each transfection. After an additional 12 hour incubation, the supernatants were assayed for alkaline phosphatase activity and these activities were expressed relative to that or the positive control samples. […] Compare FIGS. 7 and 8.
A myristoylation sequence from c-src was obtained from Pellman, et al., Nature 314, 374, and joined to a complementary sequence of CD3.zeta. to provide a primer which was complementary to a sequence 3' of the transmembrane domain, namely P#8908 (SEQ ID NO. 23). This primer has a SacII site adjacent to the 5' terminus and a XhoI sequence adjacent to the 3' terminus of the myristoylation sequence. […]

[3] = test system: chimeric receptor TAC/TAC/ZETA (TTZ); assay: Secreted alkaline phosphatase reporter (NFAT-SX and other IL-2 enhancer elements) activation via cross-linking of chimeric receptor TAC/TAC/ZETA in TAg Jurkat cells; format: cell-based, human; settings: 1 ng/ml FK506; TTZ-transfected TAg Jurkat cells
Source text: Induction of isolated IL-2 Enhancer-Binding Transcription Factors by cross-Linking the CD3.zeta. Chain of the T-Cell Receptor
The plasmid pSXNeo/IL2 (IL2-SX) (FIG. 1), placing the placental secreted alkaline phosphatase gene under the control of human IL-2 promoter (-325 to +47; MCB(86) 6, 3042), and variants (i.e. NFAT-SX, NFκB-SX, OAP/Oct1-SX, and AP-1-SX) under the control of the minimal IL-2 promoter (-325 to -294 and -72 to +47) plus synthetic oligomers, containing various promoter elements (i.e. NFAT, NKκKB, OAP/Oct-1, and AP1, respectively), were made by three piece ligations of 1) pPL/SEAP (Berger, et al., Gene (1988) 66,1) cut with SspI and HindIII; 2) pSV2/Neo (Southern and Berg, J. Mol. Appl. Genet. (1982) 1, 332) cut with NdeI, blunted with Klenow, then cut with PvuI; and 3) various promoter-containing plasmids (i.e. NFAT-CD8, κB-CD8, cx12lacZ-Oct-1, AP1-LUCIF3H, or cx15IL2) (described below) cut with PvuI and HindIII. NFAT-CD8 contains 3 copies of the NFAT-binding site (-286 to -257; Genes and Dev. (1990) 4, 1823) and cx12lacZ-Oct contains 4 copies of the OAP/Oct-1/(ARRE-1) binding site (MCB, (1988) 8, 1715) from the human IL-2 enhancer; κB-CD8 contains 3 copies of the NFκB binding site from the murine κ light chain (EMBO (1990) 9, 4425) and AP1-LUCIF3H contains 5 copies of the AP-1 site (5'-[…]-3') from the metallothionen promoter. […]

[4] = test system: NF-AT-directed transcription; settings: Emmel et al. 1989; Flanagan et al. 1991; cited from earlier work

Structure (SMILES): C=CC[C@@H]1/C=C(\C)C[C@H](C)C[C@H](OC)[C@H]2O[C@@](O)(C(=O)C(=O)N3CCCC[C@H]3C(=O)O[C@H](/C(C)=C/[C@@H]3CC[C@@H](O)[C@H](OC)C3)[C@H](C)[C@@H](O)CC1=O)[C@H](C)C[C@@H]2OC [FK506]
- stimulations after addition of FK506 [1]: dropped all stimulations to background levels
- stimulations after addition of FK506 [2]: dropped all stimulations to near background levels
- activity due to NFAT after addition of FK506 [3]: dropped all activity due to NFAT to background levels
- inhibition of NF-AT-directed transcription [4]: Inhibition of NF-AT-directed transcription
